The source of these data is patent US4703107A, “Water-soluble acylated derivatives of peptides or amino acids, their preparation and their use” (priority 1983, dated 1987).

One series concerns mice. The series can be described thus: Toxicity of prodrugs on mice. In kind it is in vivo. The conditions noted are these: for Number of surviving mice at day 8 / Number of surviving mice at day 30 / Weight variation at day 8: two intravenous injections at days 0 and 2, mg/kg/injection: ADR 19,7, GlcA-Gly-Pro-Lys-ADR 35,1, GlcA-Ile-Phe-Lys-ADR 37,0; for Apparent lesions: two intravenous injections at days 0 and 2, footnotes to day 30 column. The text has this: GlcA-Gly-Pro-Lys-Adriamycin and GlcA-Ile-Phe-Lys-Adriamycin was studied on mice after two intravenous injections at days 0 and 2.

For series [1] the following is noted: pH 8.1, aqueous buffer.
For series [2] the following is noted: Table IV; same values as Table I.

Molecules are shown by their SMILES. Converted amounts (≈) assume the structure as drawn. Counter-ions that a name gives are not always drawn. Like-named read-outs stand apart in the source and are kept apart here. Where a SMILES comes first, the peptide text is derived from it. The star is where a group is joined. dGluconoyl = O=C([C@H](O)[C@@H](O)[C@H](O)[C@H](O)CO)*; NH(9-Et-carbazol-3-yl) = CCn1c2ccccc2c2cc(N*)ccc21

In the case of `COc1cccc2c1C(=O)c1c(O)c3c(c(O)c1C2=O)C[C@@](O)(C(=O)CO)C[C@@H]3O[C@H]1C[C@H](N)[C@H](O)[C@H](C)O1` [ADR, Adriamycin, reference compound], in the series with mice, the “Number of surviving mice at day 8” value was 0/8, the “Number of surviving mice at day 30” value is 0/8 and the “Weight variation at day 8” value is -17,8%.

For orientation: solubility means the concentration that dissolves in the medium under given conditions. Turning to `CC[C@H](C)[C@H](NC(=O)OC(C)(C)C)C(=O)N[C@@H](Cc1ccccc1)C(=O)N[C@@H](CCCCN)C(=O)Nc1ccc2c(c1)c1ccccc1n2CC` [Boc--Ile--Phe--Lys--AEC, reference compound], the concentration in solution in series [1] (solubility) was 0.04 mM (≈ 0.028 mg/mL). Consider `CCn1c2ccccc2c2cc(NC(=O)[C@H](CCCCN)NC(=O)[C@H](CC(C)C)NC(=O)[C@@H](NC(=O)OC(C)(C)C)C(C)C)ccc21` [Boc--Val--Leu--Lys--AEC, reference compound], for which the concentration in solution in series [1] (solubility) came to 2.5 mM (≈ 1.63 mg/mL). The same measure, in the same setting: as for `CC[C@H](C)[C@H](NC(=O)CNC(=O)[C@H](O)[C@@H](O)[C@H](O)[C@H](O)CO)C(=O)N[C@@H](Cc1ccccc1)C(=O)N[C@@H](CCCCN)C(=O)Nc1ccc2c(c1)c1ccccc1n2CC` [GlcA--Gly--Ile--Phe--Lys--AEC] (dGluconoyl-GIFK-{NH(9-Et-carbazol-3-yl)}), the figure is 2.5 mM (≈ 2.08 mg/mL). Turning to `COc1cccc2c1C(=O)c1c(O)c3c(c(O)c1C2=O)C[C@@](O)(C(=O)CO)C[C@@H]3O[C@H]1C[C@H](NC(=O)[C@H](CCCCN)NC(=O)[C@@H]2CCCN2C(=O)CNC(=O)[C@H](O)[C@@H](O)[C@H](O)[C@H](O)CO)[C@H](O)[C@H](C)O1` [GlcA--Gly--Pro--Lys--ADR, PHA-Gly-L-Pro-L-Lys-Adriamycin], in the series with mice, the Apparent lesions result is “No apparent lesion”, the “Number of surviving mice at day 8” value was 8/8, the “Number of surviving mice at day 30” value is listed as 8/8 and the “Weight variation at day 8” value was “+15,2%”. On to `CCn1c2ccccc2c2cc(NC(=O)[C@H](CCCCN)NC(=O)[C@@H]3CCCN3C(=O)CNC(=O)[C@H](O)[C@@H](O)[C@H](O)[C@H](O)CO)ccc21` [GlcA--Gly--Pro--Lys--AEC], for which the “solubility” value in series [2] and in series [1] was 380 mM (≈ 255 mg/mL) throughout. In the case of `CCn1c2ccccc2c2cc(NC(=O)[C@H](CCCNC(=N)N)NC(=O)[C@H](Cc3ccccc3)NC(=O)[C@@H](NC(=O)CNC(=O)[C@H](O)[C@@H](O)[C@H](O)[C@H](O)CO)C(C)C)ccc21` [GlcA--Gly--Val--Phe--Arg--AEC] (dGluconoyl-GVFR-{NH(9-Et-carbazol-3-yl)}), the “solubility” value in series [2] and in series [1] was 3.6 mM (≈ 3.05 mg/mL) in each case. With `CCn1c2ccccc2c2cc(NC(=O)[C@H](CCCCN)NC(=O)[C@H](Cc3ccccc3)NC(=O)[C@@H](NC(=O)CNC(=O)[C@H](O)[C@@H](O)[C@H](O)[C@H](O)CO)C(C)C)ccc21` [GlcA--Gly--Val--Phe--Lys--AEC] (dGluconoyl-GVFK-{NH(9-Et-carbazol-3-yl)}), the “solubility” value in series [2] and in series [1] was 4.2 mM (≈ 3.44 mg/mL) throughout. On to `CC[C@H](C)[C@H](NC(=O)[C@H](O)[C@@H](O)[C@H](O)[C@H](O)CO)C(=O)N[C@@H](CC(C)C)C(=O)N[C@@H](CCCNC(=N)N)C(=O)Nc1ccc2c(c1)c1ccccc1n2CC` [GlcA--Ile--Leu--Arg--AEC], for which the “solubility” value in series [2] and in series [1] was 143 mM (≈ 110 mg/mL) each time. `CC[C@H](C)[C@H](NC(=O)[C@H](O)[C@@H](O)[C@H](O)[C@H](O)CO)C(=O)N[C@@H](CC(C)C)C(=O)N[C@@H](CCCCN)C(=O)Nc1ccc2c(c1)c1ccccc1n2CC` [GlcA--Ile--Leu--Lys--AEC]: the “solubility” value in series [2] and in series [1] was 94 mM (≈ 69.8 mg/mL) throughout.

Consider `CC[C@H](C)[C@H](NC(=O)[C@H](O)[C@@H](O)[C@H](O)[C@H](O)CO)C(=O)N[C@@H](Cc1ccccc1)C(=O)N[C@@H](CCCNC(=N)N)C(=O)Nc1ccc2c(c1)c1ccccc1n2CC` [GlcA--Ile--Phe--Arg--AEC], for which the concentration in solution in series [1] (solubility) was 1.1 mM (≈ 0.885 mg/mL). Regarding `CC[C@H](C)[C@H](NC(=O)[C@H](O)[C@@H](O)[C@H](O)[C@H](O)CO)C(=O)N[C@@H](Cc1ccccc1)C(=O)N[C@@H](CCCCN)C(=O)N[C@H]1C[C@H](O[C@H]2C[C@](O)(C(=O)CO)Cc3c(O)c4c(c(O)c32)C(=O)c2c(OC)cccc2C4=O)O[C@@H](C)[C@H]1O` [GlcA--Ile--Phe--Lys--ADR, Glc A-L-Ile-L-Phe-L-Lys-Adriamycin], in the series with mice, the Apparent lesions result was “No apparent lesion”, the “Number of surviving mice at day 8” value was 8/8, the “Number of surviving mice at day 30” value is recorded as 8/8 and the “Weight variation at day 8” value is “+14,7%”.

For `CC[C@H](C)[C@H](NC(=O)[C@H](O)[C@@H](O)[C@H](O)[C@H](O)CO)C(=O)N[C@@H](Cc1ccccc1)C(=O)N[C@@H](CCCCN)C(=O)Nc1ccc2c(c1)c1ccccc1n2CC` [GlcA--Ile--Phe--Lys--AEC, Glc A-Ile-Phe-Lys-AEC, HCl], the solubility in series [1] stood at 0.54 mM. Same read-out and setting: as for `CCn1c2ccccc2c2cc(NC(=O)[C@H](CCCCN)NC(=O)CNC(=O)[C@H](CO)NC(=O)[C@H](O)[C@@H](O)[C@H](O)[C@H](O)CO)ccc21` [GlcA--Ser--Gly--Lys--AEC], the figure is 54 mM (≈ 35.7 mg/mL). For `CCn1c2ccccc2c2cc(NC(=O)[C@H](CCCNC(=N)N)NC(=O)[C@H](CC(C)C)NC(=O)[C@@H](NC(=O)[C@H](O)[C@@H](O)[C@H](O)[C@H](O)CO)C(C)C)ccc21` [GlcA--Val--Leu--Arg--AEC], the “solubility” value in series [2] and in series [1] was 227 mM (≈ 172 mg/mL) in each case.

As for `CCn1c2ccccc2c2cc(NC(=O)[C@H](CCCNC(=N)N)NC(=O)CNC(=O)[C@H](CC(C)C)NC(=O)[C@@H](NC(=O)[C@H](O)[C@@H](O)[C@H](O)[C@H](O)CO)C(C)C)ccc21` [GlcA--Val--Leu--Gly--Arg--AEC] (dGluconoyl-VLGR-{NH(9-Et-carbazol-3-yl)}), the “solubility” value in series [2] and in series [1] was 67 mM (≈ 54.5 mg/mL) each time. For the compound `CCn1c2ccccc2c2cc(NC(=O)[C@H](CCCCN)NC(=O)CNC(=O)[C@H](CC(C)C)NC(=O)[C@@H](NC(=O)[C@H](O)[C@@H](O)[C@H](O)[C@H](O)CO)C(C)C)ccc21` [GlcA--Val--Leu--Gly--Lys--AEC] (dGluconoyl-VLGK-{NH(9-Et-carbazol-3-yl)}), the solubility in series [1] is 62 mM (≈ 48.7 mg/mL).

In the case of `CCn1c2ccccc2c2cc(NC(=O)[C@H](CCCCN)NC(=O)[C@H](CC(C)C)NC(=O)[C@@H](NC(=O)[C@H](O)[C@@H](O)[C@H](O)[C@H](O)CO)C(C)C)ccc21` [GlcA--Val--Leu--Lys--AEC], the “solubility” value in series [2] and in series [1] was 250 mM (≈ 182 mg/mL) throughout. Regarding `CCn1c2ccccc2c2cc(NC(=O)[C@H](CCCNC(=N)N)NC(=O)[C@H](Cc3ccccc3)NC(=O)[C@@H](NC(=O)[C@H](O)[C@@H](O)[C@H](O)[C@H](O)CO)C(C)C)ccc21` [GlcA--Val--Phe--Arg--AEC], the “solubility” value in series [2] and in series [1] was 100 mM (≈ 79.1 mg/mL) in each case. Compound `CCn1c2ccccc2c2cc(NC(=O)[C@H](CCCCN)NC(=O)[C@@H]3CCCN3C(=O)CNC(=O)OCc3ccccc3)ccc21` [Z--Gly--Pro--Lys--AEC, reference compound] returned a solubility in series [1] of 0.2 mM (≈ 0.125 mg/mL). Same read-out and setting: as for `CC[C@H](C)[C@H](NC(=O)OCc1ccccc1)C(=O)N[C@@H](Cc1ccccc1)C(=O)N[C@@H](CCCCN)C(=O)Nc1ccc2c(c1)c1ccccc1n2CC` [Z--Ile--Phe--Lys--AEC, reference compound], the figure is 0.03 mM (≈ 0.022 mg/mL).
